From BindingDB's records for patent US12194050 (Richter Gedeon, 2025)

Biological target: Neuronal acetylcholine receptor subunit alpha-7 (Homo sapiens, UniProt P36544)
Assay: Ca2+ Fluorometry
Description: α7 cells stably expressing human α7 nAchR were cultured in the medium detailed above, and were split twice a week. For the fluorometric measurements of cytosolic Ca2+ ion concentration ([Ca2+]i) cells were seeded in 96-well microplates at a density of 60000 cells/well and maintained overnight in a tissue culture incubator at 37° C. under an atmosphere of 95% air/5% CO2. The plating medium was identical with the culture medium. 50 μl of the growth medium was aspirated with a cell washer (BioTek Elx405UCVWS). Then 50 μl/well Calcium 5 kit diluted 2-fold in assay buffer was added manually using an 8-channel pipette. […] Baseline and agonist-evoked [Ca2+]i-changes were monitored with FlexStation II (Molecular Devices, Sunnyvale, Calif.), a plate reader fluorometer with integrated 8-channel fluid addition capability. Fluorescence measurements were carried out at 37° C. […] Baseline was recorded for 20 seconds followed by agonist stimulation. 50 μl 4× concentrated agonist solution was added to the cells using the pipettor of FlexStation II and fluorescence was monitored for an additional 40 seconds. […] In all experiments, all treatments were measured in multiple wells in parallel, and the mean ΔF/F values were used for analysis.

Sequence of Neuronal acetylcholine receptor subunit alpha-7 (P36544 whole entry): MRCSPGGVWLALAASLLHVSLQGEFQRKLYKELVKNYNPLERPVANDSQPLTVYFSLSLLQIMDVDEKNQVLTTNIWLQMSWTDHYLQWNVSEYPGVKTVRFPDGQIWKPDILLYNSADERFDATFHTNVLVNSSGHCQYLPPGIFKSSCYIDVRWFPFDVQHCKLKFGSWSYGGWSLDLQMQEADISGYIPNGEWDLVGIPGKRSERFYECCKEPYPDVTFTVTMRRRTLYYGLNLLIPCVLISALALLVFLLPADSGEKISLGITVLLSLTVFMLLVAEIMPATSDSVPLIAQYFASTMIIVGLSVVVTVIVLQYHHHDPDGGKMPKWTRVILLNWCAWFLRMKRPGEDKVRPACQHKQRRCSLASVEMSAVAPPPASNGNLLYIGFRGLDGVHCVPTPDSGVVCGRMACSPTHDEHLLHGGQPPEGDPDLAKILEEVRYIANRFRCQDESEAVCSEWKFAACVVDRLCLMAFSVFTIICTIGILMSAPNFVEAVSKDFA

EC50: 90 nM
Structure (SMILES): CCN1C(C(=O)Nc2cccc(C(F)(F)F)n2)=CC([C@H]2CC[C@H](C(F)(F)F)CC2)=NS1(=O)=O [US12194050, Example 53]
